In patent US10766908B2, “Calcium L-lactate frameworks as naturally degradable carriers” (priority 2017, dated 2020):

Assay: Slow release of cis-1,3-dichloropropene under air flow, sample weight monitored by thermogravimetric instrument
Assay type: physicochemical
Conditions: air flow of 1.0 cm^3 min^−1, 25° C.
Procedure: Here we present the use of MOF-1201 for this purpose Fumigant cis-1,3-dichloropropene has been chosen as an example. Static adsorption isotherm of cis-1,3-dichloropropene in MOF-1201 at 25° C. is shown in FIG. 3c, displaying a sharp uptake of 1.4 mmol g^−1 (13 wt %) in low partial pressure range (P/P0=0.1), attributed to adsorption within the micropores. […] In contrast, the cis-1,3-dichloropropene encapsulated in MOF-1201 released in a much slower manner, with 80% of the total (10.5 wt %) released in 100,000 min g^−1, corresponding to 100 times slower compared with liquid cis-1,3-dichloropropene under the same conditions.
Slow release experiments were carried out using the TA Q500 thermal analysis system under constant air flow rate of 1 cm^3 min ^−1.

Cl/C=C\CCl [liquid cis-1,3-dichloropropene, cis-1,3-dichloropropene]
time for 80% of the total weight to be released/evaporated: ≤ 1,000 min g^−1
